Experimental data: the NIST ThermoML archive (doi:10.1016/j.jct.2008.11.012)
Numbers after ± are expanded uncertainties.

What was measured:
[1] = xn = mol fraction of the nth substance listed; settings: 101 kPa, Liquid, x2 = 0; for viscosity: Concentric cylinders viscometry; for mass density: Vibrating tube method
[2] = 101 kPa, Liquid; for viscosity: Concentric cylinders viscometry; for mass density: Vibrating tube method

| SMILES | viscosity ([2]; 293.15 K) | mass density ([2]; 293.15 K) | viscosity ([2]; 303.15 K) | mass density ([2]; 303.15 K) | viscosity ([2]; 313.15 K) | mass density ([2]; 313.15 K) | viscosity ([2]; 323.15 K) | mass density ([2]; 323.15 K) | viscosity ([2]; 333.15 K) | mass density ([2]; 333.15 K) | viscosity ([2]; 343.15 K) | mass density ([2]; 343.15 K) | viscosity ([2]; 353.15 K) | mass density ([2]; 353.15 K) | viscosity ([2]; 363.15 K) | mass density ([2]; 363.15 K) | other results |
| --- | --- | --- | --- | --- | --- | --- | --- | --- | --- | --- | --- | --- | --- | --- | --- | --- | --- |
| O [water] + NCCNCCN | – | – | – | – | – | – | – | – | – | – | – | – | – | – | – | – | viscosity ([1]; 293.15 K): 1.006 ± 0.041 mPa·s; mass density ([1]; 293.15 K): 999.2 ± 1 kg/m3; viscosity ([1]; 303.15 K): 0.7988 ± 0.033 mPa·s; mass density ([1]; 303.15 K): 996.5 ± 1 kg/m3; viscosity ([1]; 313.15 K): 0.6546 ± 0.027 mPa·s; mass density ([1]; 313.15 K): 993 ± 1 kg/m3; viscosity ([1]; 323.15 K): 0.5427 ± 0.023 mPa·s; mass density ([1]; 323.15 K): 988.7 ± 1 kg/m3; viscosity ([1]; 333.15 K): 0.4596 ± 0.019 mPa·s; mass density ([1]; 333.15 K): 983.7 ± 1 kg/m3; viscosity ([1]; 343.15 K): 0.4271 ± 0.018 mPa·s; mass density ([1]; 343.15 K): 978.3 ± 1 kg/m3; viscosity ([1]; 353.15 K): 0.3731 ± 0.016 mPa·s; mass density ([1]; 353.15 K): 972.3 ± 1 kg/m3; viscosity ([1]; 363.15 K): 0.2983 ± 0.013 mPa·s; mass density ([1]; 363.15 K): 965.9 ± 1 kg/m3 |
| NCCNCCN [di(2-aminoethyl)amine] | 7.038 ± 0.28 mPa·s | 951 ± 1 kg/m3 | 4.804 ± 0.19 mPa·s | 942.3 ± 1 kg/m3 | 3.4 ± 0.14 mPa·s | 933.8 ± 1 kg/m3 | 2.695 ± 0.11 mPa·s | 925.5 ± 1 kg/m3 | 2.109 ± 0.086 mPa·s | 917 ± 1 kg/m3 | 1.703 ± 0.069 mPa·s | 908.9 ± 1 kg/m3 | 1.409 ± 0.057 mPa·s | 900.4 ± 1 kg/m3 | 1.19 ± 0.049 mPa·s | 891.9 ± 1 kg/m3 | – |
| O [water] | 1.006 ± 0.041 mPa·s | 999.2 ± 1 kg/m3 | 0.7988 ± 0.033 mPa·s | 996.5 ± 1 kg/m3 | 0.6546 ± 0.027 mPa·s | 993 ± 1 kg/m3 | 0.5427 ± 0.023 mPa·s | 988.7 ± 1 kg/m3 | 0.4596 ± 0.019 mPa·s | 983.7 ± 1 kg/m3 | 0.4271 ± 0.018 mPa·s | 978.3 ± 1 kg/m3 | 0.3731 ± 0.016 mPa·s | 972.3 ± 1 kg/m3 | 0.2983 ± 0.013 mPa·s | 965.9 ± 1 kg/m3 | – |
